According to ChEMBL document CHEMBL1201862, “PubChem BioAssay data set” (2004):
The source made the active and inactive calls.

What was measured:
[1] = Luminescence Cell-Based Dose Response to Identify Activators of 5'UTR Stem-Loop Driven Prion Protein mRNA Translation in H4-C Neuroglioblastoma Cells. [Related pubchem assays: 1829 (Project Summary), 1814 (Primary HTS)]; assay type: functional
[2] = Luminescence Cell-Based Dose Response HTS to Identify Activators of Luciferase Translation or Activity in H4 […] Cells. [Related pubchem assays: 1829 (Project Summary), 1814 (Primary HTS)]; assay type: functional
H4 = assay: Luminescence Cell-Based Dose Response HTS to Identify Activators of 5'UTR Stem-Loop Driven Prion Protein mRNA Translation in H4 Neuroglioblastoma Cells. [Related pubchem assays: 1829 (Project Summary), 1814 (Primary HTS)]; assay type: functional; conditions: Homo sapiens
[3] = Luminescence Cell-Based Dose Response to Identify Activators of Luciferase Translation or Activity in H4-C Neuroglioblastoma Cells. [Related pubchem assays: 1829 (Project Summary), 1814 (Primary HTS)]; assay type: functional
[4] = Luminescence Cell-Based Dose Confirmation to Identify Activators of 5'UTR Stem-Loop Driven Alpha-Synuclein mRNA Translation in H4 Neuroglioblastoma Cells. [Related pubchem assays: 1829 (Project Summary), 1814 (Primary HTS)]; assay type: functional
[5] = biological target: T1, Rac GTPase-activating protein 1 (Homo sapiens, UniProt Q9H0H5); assay: blockers of MgcRacGAP-driven Rac1 GTP hydrolysis – biochemical, ADP Hunter fluorescence, primary and confirmatory, confirmation (AID 624330); assay type: functional
T1 sequence (Q9H0H5 whole entry): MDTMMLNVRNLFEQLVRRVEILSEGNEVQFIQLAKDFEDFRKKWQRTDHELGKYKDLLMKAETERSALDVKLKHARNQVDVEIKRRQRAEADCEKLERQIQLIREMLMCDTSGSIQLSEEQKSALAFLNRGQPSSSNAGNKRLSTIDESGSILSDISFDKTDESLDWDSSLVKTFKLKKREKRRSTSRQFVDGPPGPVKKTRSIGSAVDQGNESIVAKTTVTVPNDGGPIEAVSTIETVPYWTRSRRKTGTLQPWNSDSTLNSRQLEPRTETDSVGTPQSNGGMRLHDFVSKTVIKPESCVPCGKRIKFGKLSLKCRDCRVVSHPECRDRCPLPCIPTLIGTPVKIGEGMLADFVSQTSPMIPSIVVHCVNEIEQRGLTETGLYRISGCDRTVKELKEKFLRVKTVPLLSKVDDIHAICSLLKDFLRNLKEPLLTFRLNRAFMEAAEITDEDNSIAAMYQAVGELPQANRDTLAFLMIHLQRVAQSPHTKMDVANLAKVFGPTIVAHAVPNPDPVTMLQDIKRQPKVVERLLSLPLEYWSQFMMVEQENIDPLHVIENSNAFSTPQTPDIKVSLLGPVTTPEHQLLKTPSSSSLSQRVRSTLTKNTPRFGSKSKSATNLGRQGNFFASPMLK

[6] = biological target: T2, Oxysterols receptor LXR-beta (Homo sapiens, UniProt P55055); assay type: functional, cell-based;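 also: agonist activity at LXR measured by a cell-based luminescence readout across a dose range, run as a counterscreen for daf-12 agonists; HEK293 cells with Gal4-LXR fusion and GAL4-driven luciferase reporter; potency for activation of Gal4-LXR reporter so compounds are agonists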
T2 sequence (P55055 whole entry): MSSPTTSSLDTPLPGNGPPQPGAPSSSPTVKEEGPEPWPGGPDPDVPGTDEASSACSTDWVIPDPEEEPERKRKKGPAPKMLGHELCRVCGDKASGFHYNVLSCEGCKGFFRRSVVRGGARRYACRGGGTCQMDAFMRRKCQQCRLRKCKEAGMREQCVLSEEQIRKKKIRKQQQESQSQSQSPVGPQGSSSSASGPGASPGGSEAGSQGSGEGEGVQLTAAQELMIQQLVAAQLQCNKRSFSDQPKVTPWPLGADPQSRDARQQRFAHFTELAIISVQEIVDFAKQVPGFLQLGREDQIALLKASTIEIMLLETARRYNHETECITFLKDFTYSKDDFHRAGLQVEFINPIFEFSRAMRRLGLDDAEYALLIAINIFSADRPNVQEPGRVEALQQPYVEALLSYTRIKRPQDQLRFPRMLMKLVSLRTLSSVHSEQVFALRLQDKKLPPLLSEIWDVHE

[7] = potency of ADAM10 substrate cleavage blockers – biochemical, QFRET, dose response (AID 743254);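 also: ADAM10 enzyme with the DM2 quenched FRET peptide as substrate; EDANS fluorescence gain as the protease cuts the substrate; inhibitor potency against ADAM10 proteolytic activity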
[8] = biological target: Disintegrin and metalloproteinase domain-containing protein 17 (Homo sapiens, UniProt P78536); assay: inhibition of ADAM17 substrate cleavage – biochemical, quenched FRET substrate, counter-screen for ADAM10 exosite inhibitor project, dose response (AID 743253)
[9] = A cytotoxicity screen of small molecule inhibitors of the PhoP region in Salmonella typhi identified in the primary screen. [Related pubchem assays: 1850, 1864, 1985 ]; assay type: functional
INS1 = assay: INS-1E survival protection against cytokine death – cell-based, luminescence, retest, dose response (AID 449756); assay type: functional; conditions: Rattus norvegicus;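 also: cell death triggered by IL-1 beta plus TNF-alpha plus IFN-gamma mixture; protective hits raise ATP signal compared with cytokine alone wells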
[10] = reduction of Shn3 3'UTR-driven luciferase in osteoblasts – cell-based, Clone20 osteoblasts, firefly luciferase, cherry-picked, dose response (AID 624132); assay type: functional;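 also: firefly luciferase luminescence from reporter carrying the Shn3 3'UTR in osteoblasts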
[11] = loss of viability in HepG2 cells – cell-based, CellTiter-Glo, cherry-picked, cytotoxicity control for Shn3 inhibitor project, dose response (AID 624134); assay type: functional
[12] = non-specific 3'UTR reporter inhibition in Clone20-Shn3RL – cell-based, Renilla luciferase, cherry-picked, counter-screen for Shn3 inhibitor project, dose response (AID 624133); assay type: functional
Protein Wnt-3a = Protein Wnt-3a (Mus musculus, UniProt P27467); assay: antagonism of Wnt3a pathway luciferase reporter – Wnt-LIGHT cells, luminescence, selectivity assay for Gli-SUFU antagonist project, dose response (AID 651570); assay type: functional; conditions: read-out: IC50_Mean;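 also: Wnt-LIGHT reporter cells stimulated with conditioned medium from Wnt3a-producing cells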
[13] = blockers of HIV-1 envelope-mediated cell-cell fusion – cherry-pick, dose response (AID 652057); assay type: functional, cell-based
[14] = viability loss in CEM21 cells – cell-based, CellTiter-Glo luminescence, cherry-picked, cytotoxicity control for viral fusion inhibitor project, dose response (AID 652042); assay type: functional;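 also: potency for signal decrease meaning cytotoxicity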
[15] = blockers of HIV-1 ZM109 envelope-driven cell-cell fusion – HeLa effector, CEM target cells, luciferase, cherry-pick, dose response (AID 652058); assay type: functional, cell-based;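 also: luciferase signal from HIV-1 Env mediated cell-cell fusion of effector and target cells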
[16] = HIV-1 AD8 envelope cell-cell fusion blockers – cherry-pick, dose response (AID 652062); assay type: functional, cell-based;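 also: luciferase signal from cell-cell fusion driven by HIV-1 clade B AD8 Env; potency is for inhibitors of fusion seen as a drop in luminescence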
[17] = Shn3 3'UTR reporter signal decrease – cell-based, Clone20 osteoblasts, firefly luciferase, cherry-pick, set 2, Schnurri-3 inhibitor project, dose response (AID 720490); assay type: functional;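 also: actives lower the luminescence signal as inhibitors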
[18] = Late stage counterscreen for inhibitors of Trypanosoma brucei methionyl tRNA synthetase (MetRS): Luminescence-based cell-based high throughput dose response assay to identify compounds that are cytotoxic to Jurkat human T lymphocyte cells.; assay type: functional

Chain of Disintegrin and metalloproteinase domain-containing protein 17 (P78536 whole entry, the tested form may be a part): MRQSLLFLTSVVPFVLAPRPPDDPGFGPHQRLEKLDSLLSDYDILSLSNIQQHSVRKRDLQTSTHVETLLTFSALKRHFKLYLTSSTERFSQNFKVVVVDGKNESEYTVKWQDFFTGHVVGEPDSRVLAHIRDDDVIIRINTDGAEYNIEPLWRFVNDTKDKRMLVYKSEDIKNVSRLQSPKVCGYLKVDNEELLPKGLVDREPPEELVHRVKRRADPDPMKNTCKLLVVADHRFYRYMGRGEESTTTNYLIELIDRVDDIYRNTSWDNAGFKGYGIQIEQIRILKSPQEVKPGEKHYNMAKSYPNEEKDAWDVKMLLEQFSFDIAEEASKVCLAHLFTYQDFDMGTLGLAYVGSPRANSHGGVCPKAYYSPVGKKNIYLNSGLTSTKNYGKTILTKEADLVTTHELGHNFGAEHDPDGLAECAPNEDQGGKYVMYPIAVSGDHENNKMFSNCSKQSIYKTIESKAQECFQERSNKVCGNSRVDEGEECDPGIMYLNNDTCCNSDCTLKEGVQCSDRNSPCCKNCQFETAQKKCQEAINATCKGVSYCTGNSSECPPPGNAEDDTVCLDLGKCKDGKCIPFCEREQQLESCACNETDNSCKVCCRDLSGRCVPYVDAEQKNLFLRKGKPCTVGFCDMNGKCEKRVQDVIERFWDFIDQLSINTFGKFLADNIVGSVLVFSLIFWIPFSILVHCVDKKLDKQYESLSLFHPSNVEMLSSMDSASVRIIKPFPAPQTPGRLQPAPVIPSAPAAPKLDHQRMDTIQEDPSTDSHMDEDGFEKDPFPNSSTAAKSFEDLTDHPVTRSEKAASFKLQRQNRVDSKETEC
Chain of Protein Wnt-3a (P27467 whole entry, the tested form may be a part): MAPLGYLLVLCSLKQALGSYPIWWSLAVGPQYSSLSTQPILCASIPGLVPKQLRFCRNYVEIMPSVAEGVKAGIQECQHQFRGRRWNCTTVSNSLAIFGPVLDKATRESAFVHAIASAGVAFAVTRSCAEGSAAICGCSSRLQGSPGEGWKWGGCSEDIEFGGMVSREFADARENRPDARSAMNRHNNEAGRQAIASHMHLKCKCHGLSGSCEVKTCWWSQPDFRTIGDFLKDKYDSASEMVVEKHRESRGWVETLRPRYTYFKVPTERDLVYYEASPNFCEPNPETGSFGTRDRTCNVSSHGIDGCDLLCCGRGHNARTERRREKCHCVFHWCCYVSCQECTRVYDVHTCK

## CN1C(=O)/C(=C/C=C2\SCCN2C)N(C)C1=S
[1]
  EC50: 0.383 µM (active)
[2]
  EC50: < 0.1 µM (active)
H4
  EC50: > 120 µM (inconclusive)
[3]
  EC50: 0.41 µM (active)
[4]
  EC50: 0.766 µM (active)
[5]
  IC50: 20 µM (active)
[6]
  EC50: > 67.6 µM (inactive)

## C=CCN(c1ccccc1OC)S(=O)(=O)c1cccc(C(=O)OCC(=O)c2c[nH]c3ccccc23)c1
[7]
  IC50: > 69.5 µM (inactive)
[8]
  IC50: > 69.5 µM (inactive)

## CCN(CC)c1ccc(NC(=O)COC(=O)CSc2ccc(Br)cc2C)cc1
[7]
  IC50: > 7.72 µM (active)
[8]
  IC50: > 69.5 µM (inactive)

## CCCCOCCCNc1[nH]cnc2c3ccccc3nc1-2
[9]
  EC50: > 50 µM (active)
INS1
  AC50: 1.78 µM (active)
[10]
  AC50: 1.05 µM (active)
[11]
  AC50: 22.9 µM (active)
[12]
  AC50: 10.9 µM (active)
Protein Wnt-3a
  IC50: 0.843 µM (active)
[13]
  AC50: 33.8 µM (active)
[14]
  AC50: 46.3 µM (active)
[15]
  AC50: 14.8 µM (active)
[16]
  AC50: 5.02 µM (active)
[17]
  AC50: 1.48 µM (active)

## O=C(NCc1nc2ccccc2[nH]1)C1=C[C@H](c2ccc(Br)cc2)C[C@H](OCc2ccc(CO)cc2)O1
[18]
  IC50: 81.3 µM (inactive)
